This passage reports IC50, Resistance index and inhibition in vivo results from patent US5948791A, “Quinoline derivatives for treating malaria” (Hoffmann-La Roche Inc., priority 1995, dated 1999).

SMILES strings stand for the structures. Read-outs that look alike come from different tables or passages of the source.

Test [1] has as its system Plasmodium falciparum K1. The test is described as follows: Growth inhibition of Plasmodium falciparum K1 (chloroquine-resistant) in vitro, [G-3H]-hypoxanthin incorporation. The class given is cell-based, Plasmodium falciparum (strain K1). The settings on record: for IC50: Plasmodium falciparum, K1, 72 h, read-out: IC50 for P. falciparum K1; for Resistance index: ratio of the IC50 for K1 and the IC50 for NF54. In outline: (§1)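 Asynchronous intraerythrocytic cultures in human A+ erythrocytes (0.7% parasitemia, 2.5% suspension) in RPMI 1640 with HEPES, NaHCO3 and human serum, exposed to compound titrated over 6-7 steps for 72 h at 37° C, 3% O2. Growth by [G-3H]-hypoxanthin incorporation against untreated controls; IC50 by logit regression.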

Test [2] has as its system Plasmodium berghei. The test is described as follows: animal or person. The class given is in vivo, Plasmodium berghei (strain ANKA) in mice. The following applies: Plasmodium berghei, mice, blood smears 48 h after treatment. In outline: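 Male albino mice (~25 g) infected i.v. on D0 with P. berghei ANKA (0.2 ml of 10^8 parasitized erythrocytes/ml); single s.c. and p.o. dose 24 h post-infection, 10 mg/kg screen then titration.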

Test [3] deals with Plasmodium falciparum strain NF54. Put plainly: Growth inhibition of Plasmodium falciparum NF54 (chloroquine-sensitive) in vitro, [G-3H]-hypoxanthin incorporation. It counts as cell-based. The following applies: chloroquine-sensitive strain NF54, 72 h, read-out: IC50 for P. falciparum NF54. In outline: as §1
Setting [4] is: po, single peroral dose of 10 mg/kg, read-out: Growth inhibition in % after po administration (GI%, percentage reduction of the parasitemia).
[5] abbreviates: sc, single subcutaneous dose of 10 mg/kg, read-out: Growth inhibition in % after sc administration (GI%, percentage reduction of the parasitemia).

Regarding `Cl.Cl.Clc1ccc2c(N[C@H]3CC[C@@H](NCc4ccc(Cl)c(Cl)c4)CC3)ccnc2c1` [Example 74, cis-N1-(7-Chloro-quinolin-4-yl)-N4-(3,4-dichloro-benzyl)-cyclohexane-1,4-diamine dihydrochloride], the values for the IC50 in test [1] and in test [3] were 14.5 ng/mL and 23.3 ng/mL, respectively. The Resistance index in test [1] was found to be 0.6. For the same compound, the figures for the inhibition in vivo at 10 mg/kg in test [2] (setting [4]) and in test [2] (setting [5]) were 83% and 84%, respectively.

Turning to `Cl.Cl.Clc1cc(Cl)cc(CN[C@H]2CC[C@@H](Nc3ccnc4cc(Cl)ccc34)CC2)c1` [Example 75, cis-N1-(7-Chloro-quinolin-4-yl)-N4-(3,5-dichloro-benzyl)-cyclohexane-1,4-diamine dihydrochloride], the results for the IC50 in test [1] and in test [3] were 18 ng/mL and 25 ng/mL, respectively. Further, the Resistance index in test [1] was 0.7. Besides, the results for the inhibition in vivo at 10 mg/kg in test [2] (setting [4]) and in test [2] (setting [5]) were 99.8% and 99.7%, respectively.

With `Cl.Cl.Fc1cc(CN[C@H]2CC[C@@H](Nc3ccnc4cc(Cl)ccc34)CC2)ccc1Cl` [Example 76, cis-N1-(7-Chloro-quinolin-4-yl)-N4-(4-chloro-3-fluoro-benzyl)-cyclohexane-1,4-diamine dihydrochloride], the IC50 in test [1] came out at 6.1 ng/mL; in test [3], 7.2 ng/mL. The Resistance index in test [1] amounted to 0.8. Moreover, the inhibition in vivo at 10 mg/kg in test [2] (setting [4]) and in test [2] (setting [5]) was 96% in each case.

Take `Cl.Cl.FC(F)(F)c1cc(CN[C@H]2CC[C@@H](Nc3ccnc4cc(Cl)ccc34)CC2)cc(C(F)(F)F)c1` [Example 77, cis-N1-(7-Chloro-quinolin-4-yl)-N4-(3,5-bis-trifluoromethyl-benzyl)-cyclohexane-1,4-diamine dihydrochloride]: the IC50 in test [1] was found to be 63.2 ng/mL; in test [3] it was 96.6 ng/mL. For the same compound, the Resistance index in test [1] came to 0.7. For the same compound, the inhibition in vivo at 10 mg/kg in test [2] (setting [4]) came to 99%; in test [2] (setting [5]), 98%.

Consider `COc1ccc(CN[C@H]2CC[C@@H](Nc3ccnc4cc(Cl)ccc34)CC2)c(O)c1.Cl.Cl` [Example 79, cis-N1-(7-Chloro-quinolin-4-yl)-N4-(2-hydroxy-4-methoxy-benzyl)-cyclohexane-1,4-diamine dihydrochloride], for which the results for the IC50 in test [1] and in test [3] were 7.7 ng/mL and 4.1 ng/mL, respectively. The Resistance index in test [1] was 1.9. The figures for the inhibition in vivo at 10 mg/kg in test [2] (setting [4]) and in test [2] (setting [5]) were 99.9% and 100%, respectively.

As for `COc1ccc(O)c(CN[C@H]2CC[C@@H](Nc3ccnc4cc(Cl)ccc34)CC2)c1.Cl.Cl` [Example 80, cis-N1-(7-Chloro-quinolin-4-yl)-N4-(2-hydroxy-5-methoxy-benzyl)-cyclohexane-1,4-diamine dihydrochloride], the IC50 in test [1] worked out at 18.4 ng/mL; in test [3], 8.9 ng/mL. In test [1], the Resistance index amounted to 2.1. The inhibition in vivo at 10 mg/kg in test [2] (setting [4]) came to 99.9%; in test [2] (setting [5]), 100%.

As for `COc1ccc(CN[C@H]2CC[C@@H](Nc3ccnc4cc(Cl)ccc34)CC2)c(OC)c1.Cl.Cl` [Example 81, cis-N1-(7-Chloro-quinolin-4-yl)-N4-(2,4-dimethoxy-benzyl)-cyclohexane-1,4-diamine dihydrochloride], the figures for the IC50 in test [1] and in test [3] were 9.7 ng/mL and 4.3 ng/mL, respectively. Moreover, in test [1], the Resistance index was 2.3. Further, the inhibition in vivo at 10 mg/kg in test [2] (setting [4]) and in test [2] (setting [5]) was 100% throughout.

With `COc1cc(CN[C@H]2CC[C@@H](Nc3ccnc4cc(Cl)ccc34)CC2)cc(OC)c1.Cl.Cl` [Example 82, cis-N1-(7-Chloro-quinolin-4-yl)-N4-(3,5-dimethoxy-benzyl)-cyclohexane-1,4-diamine dihydrochloride], the IC50 in test [1] came to 8.5 ng/mL; in test [3], 5.7 ng/mL. The Resistance index in test [1] was 1.5. The inhibition in vivo at 10 mg/kg in test [2] (setting [4]) and in test [2] (setting [5]) was 99.9% each time.

As to `CSc1ccc(CN[C@H]2CC[C@@H](Nc3ccnc4cc(Cl)ccc34)CC2)cc1.Cl.Cl` [Example 83, cis-N1-(7-Chloro-quinolin-4-yl)-N4-(4-methylsulphanyl-benzyl)-cyclohexane-1,4-diamine dihydrochloride], the IC50 in test [1] came out at 5.9 ng/mL; in test [3], 8.6 ng/mL. Besides, the Resistance index in test [1] is listed as 0.7. Besides, the inhibition in vivo at 10 mg/kg in test [2] (setting [4]) and in test [2] (setting [5]) was 100% throughout.

With `Cl.Cl.O=[N+]([O-])c1ccc(CN[C@H]2CC[C@@H](Nc3ccnc4cc(Cl)ccc34)CC2)cc1` [Example 84, cis-N1-(7-Chloro-quinolin-4-yl)-N4-(4-nitro-benzyl)-cyclohexane-1,4-diamine dihydrochloride], the IC50 in test [1] worked out at 7.8 ng/mL; in test [3], 6.9 ng/mL. Further, in test [1], the Resistance index was determined as 1.1. For the same compound, the inhibition in vivo at 10 mg/kg in test [2] (setting [4]) and in test [2] (setting [5]) was 100% each time.

For the compound `CCN(CC)c1ccc(CN[C@H]2CC[C@@H](Nc3ccnc4cc(Cl)ccc34)CC2)cc1.Cl.Cl.Cl` [Example 85, cis-N1-(7-Chloro-quinolin-4-yl)-N4-(4-diethylamino-benzyl)-cyclohexane-1,4-diamine trihydrochloride], the figures for the IC50 in test [1] and in test [3] were 3.9 ng/mL and 4.6 ng/mL, respectively. The Resistance index in test [1] was found to be 0.8. The inhibition in vivo at 10 mg/kg in test [2] (setting [4]) turned out to be 99.9%; in test [2] (setting [5]), 100%.

On to `Cl.Cl.N#Cc1ccc(CN[C@H]2CC[C@@H](Nc3ccnc4cc(Cl)ccc34)CC2)cc1` [Example 86, cis-N1-(7-Chloro-quinolin-4-yl)-N4-(4-cyano-benzyl)-cyclohexane-1,4-diamine dihydrochloride], for which the figures for the IC50 in test [1] and in test [3] were 7 ng/mL and 5.6 ng/mL, respectively. In addition, in test [1], the Resistance index came out at 1.3. For the same compound, the inhibition in vivo at 10 mg/kg in test [2] (setting [4]) and in test [2] (setting [5]) was 99.9% each time.

Turning to `Cl.Cl.Clc1ccc2c(N[C@H]3CC[C@@H](NCc4ccc(-c5ccccc5)cc4)CC3)ccnc2c1` [Example 87, cis-N1-(7-Chloro-quinolin-4-yl)-N4-(biphenyl-4-yl-methyl)-cyclohexane-1,4-diamine dihydrochloride], the results for the IC50 in test [1] and in test [3] were 10.2 ng/mL and 6.2 ng/mL, respectively. Further, the Resistance index in test [1] is recorded as 1.6. For the same compound, the inhibition in vivo at 10 mg/kg stood at 98% in test [2] (setting [4]) and 94% in test [2] (setting [5]).

With `COc1ccc(CCN[C@H]2CC[C@H](Nc3ccnc4cc(Cl)ccc34)CC2)cc1OC.Cl.Cl` [Example 88, trans-N1-(7-Chloro-quinolin-4-yl)-N4-[2-(3,4-dimethoxy-phenyl)-ethyl]-cyclohexane-1,4-diamine dihydrochloride], the IC50 in test [1] came to 21.4 ng/mL; in test [3], 7.4 ng/mL. Besides, the Resistance index in test [1] is listed as 2.9. Further, the inhibition in vivo at 10 mg/kg in test [2] (setting [4]) came out at 66%; in test [2] (setting [5]) it was 99.9%.

Regarding `Cl.Cl.Clc1ccc2c(N[C@H]3CC[C@H](NCCc4ccccc4)CC3)ccnc2c1` [Example 89, trans-N1-(7-Chloro-quinolin-4-yl)-N4-phenethyl-cyclohexane-1,4-diamine dihydrochloride], the IC50 is 17.5 ng/mL in test [1] and 2.2 ng/mL in test [3]. Also, in test [1], the Resistance index stood at 8.0. For the same compound, the figures for the inhibition in vivo at 10 mg/kg in test [2] (setting [4]) and in test [2] (setting [5]) were 99.8% and 99.9%, respectively.

On to `COc1cc(N[C@H]2CC[C@H](Nc3ccnc4cc(Cl)ccc34)CC2)cc(OC)c1.Cl` [Example 90, trans-N1-(7-Chloro-quinolin-4-yl)-N4-(3,5-dimethoxy-phenyl)-cyclohexane-1,4-diamine hydrochloride], for which the IC50 in test [1] came out at 98.8 ng/mL; in test [3] it was 49.7 ng/mL. Further, in test [1], the Resistance index was 2.0. Besides, the inhibition in vivo at 10 mg/kg in test [2] (setting [4]) came to 45%; in test [2] (setting [5]), 60%.

`Cl.Cl.Clc1ccc(CCN[C@H]2CC[C@H](Nc3ccnc4cc(Cl)ccc34)CC2)c(Cl)c1` [Example 91, trans-N1-(7-Chloro-quinolin-4-yl)-N4-[2-(2,4-dichloro-phenyl)-ethyl]-cyclohexane-1,4-diamine dihydrochloride]: the IC50 in test [1] was 10.9 ng/mL; in test [3] it was 3.4 ng/mL. The Resistance index in test [1] came to 3.2. Also, the inhibition in vivo at 10 mg/kg in test [2] (setting [4]) came out at 88%; in test [2] (setting [5]), 86%.

As to `COc1ccc(CCN[C@H]2CC[C@H](Nc3ccnc4cc(Cl)ccc34)CC2)cc1.Cl.Cl` [Example 92, trans-N1-(7-Chloro-quinolin-4-yl)-N4-[2-(4-methoxy-phenyl)-ethyl]-cyclohexane-1,4-diamine dihydrochloride], the figures for the IC50 in test [1] and in test [3] were 8 ng/mL and 2.2 ng/mL, respectively. Also, the Resistance index in test [1] came out at 3.6. Further, the inhibition in vivo at 10 mg/kg in test [2] (setting [4]) was determined as 85%; in test [2] (setting [5]), 99.7%.

Turning to `Cl.Cl.O=[N+]([O-])c1ccc(CCN[C@H]2CC[C@H](Nc3ccnc4cc(Cl)ccc34)CC2)cc1` [Example 93, trans-N1-(7-Chloro-quinolin-4-yl)-N4-[2-(4-nitro-phenyl)-ethyl]-cyclohexane-1,4-diamine dihydrochloride], the IC50 in test [1] is 8.3 ng/mL; in test [3], 3.4 ng/mL. Also, the Resistance index in test [1] worked out at 2.4. Also, the results for the inhibition in vivo at 10 mg/kg in test [2] (setting [4]) and in test [2] (setting [5]) were 98% and 99%, respectively.
